Measured values published in PubChem BioAssay AID588512 (NMMLSC, 2011).
The source made the active and inactive calls.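 How the source made its calls: active means viability below 80%, counted as toxic; inactive means the rest.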

Tested on: HEK-293 viability, CellTiter-Glo ATP luminescence, 3 days
Assay: HEK-293 cell cytotoxicity, late-stage follow-up, cytotoxicity control for GRK2 aptamer-displacement inhibitor project, powder set 1 (AID 588512)
Conditions: at 20 µM; active compounds read low

Row | SMILES | viability
1 | Cc1cc2ccccc2n1CCNC(=O)c1cccs1 | 109% (inactive)
2 | CCOc1ccc(CCNC(=O)CCS(=O)(=O)c2ccc(Br)cc2)cc1OCC | 123% (inactive)
3 | CCc1ccccc1NC(=O)CCS(=O)(=O)c1ccc(Br)cc1 | 82.6% (inactive)
4 | O=C(CCS(=O)(=O)c1ccc(Br)cc1)NCCc1ccc(Cl)cc1 | 124% (inactive)
5 | O=C(CCS(=O)(=O)c1ccc(Br)cc1)Nc1cc(F)ccc1F | 110% (inactive)
6 | COc1ccc(CNC(=O)CCS(=O)(=O)c2ccc(Br)cc2)cc1 | 95.2% (inactive)
7 | Cc1ccccc1NC(=O)CCS(=O)(=O)c1ccc(Br)cc1 | 128% (inactive)
8 | O=C(O)C1CC(=O)N(c2ccc3c(c2)OCCO3)C1 (stereo not given) | 133% (inactive)
9 | Cc1cc(=O)[nH]c(SCC(=O)NCc2ccco2)n1 | 69.3%
10 | Cc1cccc(N2CCN(C(=O)CCS(=O)(=O)c3ccc(Br)cc3)CC2C)c1 (stereo not given) | 113% (inactive)
